Assay results reported in patent US9174992B2, “Heterobicyclic compounds” (Amgen Inc., priority 2012, dated 2015).

Each compound was assayed against PDE10A (UniProt Q9Y233) (assay: PDE10 enzyme inhibition, IMAP TR-FRET assay (Example A, MPDE10A7 Enzyme Activity and Inhibition)). Conditions: approximate IC50 value, Table 10.
Assay type: biochemical
In short: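 Compounds were preincubated 60 min at room temperature with PDE10A enzyme or tissue homogenate, then fluorescein-labeled cAMP or cGMP was added for 90 min. After stopping with IMAP binding reagents, TR-FRET was read and IC50s were fitted with a four-parameter logistic equation.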
CC1(C)C(=O)N([C@H]2C[C@H](Nc3ccc4cccnc4n3)C2)c2nccnc21 [Example 162, 5-(trans-3-((1,8-naphthyridin-2-yl)amino)cyclobutyl)-7,7-dimethyl-5H-pyrrolo[2,3-b]pyrazin-6(7H)-one] was tested, and the IC50 was 6.77 nM. Work on Cn1c(=O)n([C@H]2C[C@H](Nc3nc4ccccc4s3)C2)c2nccnc21 [Example 95, 1-(trans-3-(benzo[d]thiazol-2-ylamino)cyclobutyl)-3-methyl-1H-imidazo[4,5-b]pyrazin-2(3H)-one] yielded an IC50 of 0.971 nM. Work on CC1(C)C(=O)N([C@H]2C[C@H](Nc3ccc(C4CC4)cn3)C2)c2ncccc21 [Example 41, 1-(Trans-3-((5-cyclopropylpyridin-2yl)amino)cyclobutyl)-3,3-dimethyl-1H-pyrrolo[2,3-b]pyridin-2(3H)-one] yielded an IC50 of 0.329 nM. Compound c1cnc2nc(N[C@H]3C[C@H](n4c(C5CC5)nc5cccnc54)C3)ccc2c1 [Example 11] has an IC50 of 5.53 nM. With Cn1c(O[C@H]2C[C@H](n3c(=O)n(C)c4cccnc43)C2)nc2ccccc21 [Example 144, 1-methyl-3-(trans-3-((1-methyl-1H-benzo[d]imidazol-2-yl)oxy)cyclobutyl)-1H-imidazo[4,5-b]pyridin-2(3H)-one] the IC50 was 1.12 nM. With O=C1N([C@H]2C[C@H](Nc3nc4ccccc4s3)C2)c2ncccc2C1(F)F [Example 212, 1-(trans-3-(benzo[d]thiazol-2-ylamino)cyclobutyl)-3,3-difluoro-1-H-pyrrolo[2,3-b]pyridin-2-(3H)-one] the IC50 was 0.449 nM. Work on CC1(C)C(=O)N([C@H]2C[C@H](Nc3nc4ccccc4s3)C2)c2nccnc21 [Example 34, 5-(trans-3-(benzo[d]thiazol-2-ylamino)cyclobutyl)-7,7-dimethyl-5H-pyrrolo[2,3-b]pyrazin-6(7H)-one] yielded an IC50 of 0.107 nM.
